Experimental data: patent US12036312B2, “Non-aqueous topical compositions comprising a halogenated salicylanilide” (priority 2016, dated 2024)
≈ marks a conversion by molar mass, not a printed value.

Tested on: S. aureus
Assay: MIC assay according to CLSI criteria, Example 2, S. aureus strains
Assay type: cell-based, Staphylococcus aureus
Details: Staphylococcus aureus
From the text: Chosen for its relevance regarding bacterial skin infections, the methicillin-resistant S. aureus (MRSA) 01 strain was used as the primary test microorganism. This strain is a community-acquired MRSA clinical isolate of USA 300 type, from a skin abscess.
Two-hundred-four other MRSA and methicillin-sensitive S. aureus strains, and 4 Streptococcus pyogenes strains, were also included in the study. These covered fusidic acid- and mupirocin-resistant strains, these two types of resistance being of clinical relevance.
Strains were conserved in Luria Bertani (LB) Broth (S. aureus) or Brain Heart Infusion (BHI) (S. pyogenes) supplemented with glycerol 15% (v/v) at −80° C., and reactivated by isolation on LB (S. aureus) or BHI (S. pyogenes) agar plates. Strains were cultivated in Mueller Hinton (MH) Broth-cation adjusted (S. aureus) or BHI (S. pyogenes). All strains were cultivated aerobically (microaerobically for S. pyogenes strains) at 37° C.
Bacterial cultures were stopped in their exponential growth phase and plates were inoculated with the approximate concentration of 5×10^5 cells per well. Plates were incubated at 37° C. for 18 hours (S. aureus) or 24 hours (S. pyogenes). Optical density at a wavelength of 600 nm was measured at the end of the incubation time.

## C=C[C@]1(C)C[C@@H](OC(=O)CS[C@@H]2C[C@H]3CC[C@@H](C2)N3C)[C@]2(C)[C@H](C)CC[C@]3(CCC(=O)[C@H]32)[C@@H](C)[C@@H]1O [Retapamulin, retapamulin]
ATCC29213, strain ATCC 29213
  MIC: 0.03 µg/mL (≈ 0.0579 µM)
MRSA, strain MRSA 01
  MIC: 0.06 µg/mL (≈ 0.116 µM)
MRSA, strain MRSA 02
  MIC: 0.06 µg/mL (≈ 0.116 µM)
MRSA, strain MRSA 03
  MIC: 0.03 µg/mL (≈ 0.0579 µM)
MRSA, strain MRSA 04
  MIC: 0.06 µg/mL (≈ 0.116 µM)
MRSA, strain MRSA 05
  MIC: 0.03 µg/mL (≈ 0.0579 µM)
MRSA, strain MRSA 06
  MIC: 0.03 µg/mL (≈ 0.0579 µM)
MRSA, strain MRSA 07
  MIC: 0.06 µg/mL (≈ 0.116 µM)
MRSA, strain MRSA 08
  MIC: 0.03 µg/mL (≈ 0.0579 µM)
MRSA, strain MRSA 09
  MIC: 0.06 µg/mL (≈ 0.116 µM)
MRSA, strain MRSA 10
  MIC: 0.06 µg/mL (≈ 0.116 µM)
MRSA, strain MRSA 11
  MIC: 0.06 µg/mL (≈ 0.116 µM)
MRSA, strain MRSA 12
  MIC: 0.03 µg/mL (≈ 0.0579 µM)
MRSA, strain MRSA 13
  MIC: 0.06 µg/mL (≈ 0.116 µM)
MRSA, strain MRSA 14
  MIC: 0.03 µg/mL (≈ 0.0579 µM)
MRSA, strain MRSA 15
  MIC: 0.06 µg/mL (≈ 0.116 µM)
MRSA, strain MRSA 16
  MIC: 0.06 µg/mL (≈ 0.116 µM)
MRSA, strain MRSA 17
  MIC: 0.03 µg/mL (≈ 0.0579 µM)
MRSA, strain MRSA 18
  MIC: 0.06 µg/mL (≈ 0.116 µM)
MRSA, strain MRSA 19
  MIC: 0.03 µg/mL (≈ 0.0579 µM)
MRSA, strain MRSA 20
  MIC: 0.06 µg/mL (≈ 0.116 µM)
MRSA, strain MRSA 21
  MIC: 0.125 µg/mL (≈ 0.241 µM)
MRSA, strain MRSA 22
  MIC: 0.06 µg/mL (≈ 0.116 µM)
MRSA, strain MRSA 23
  MIC: 0.06 µg/mL (≈ 0.116 µM)
MRSA, strain MRSA 24
  MIC: 0.06 µg/mL (≈ 0.116 µM)
MRSA, strain MRSA 25
  MIC: 0.06 µg/mL (≈ 0.116 µM)
MRSA, strain MRSA 26
  MIC: 0.06 µg/mL (≈ 0.116 µM)
MRSA, strain MRSA 27
  MIC: 0.06 µg/mL (≈ 0.116 µM)
MRSA, strain MRSA 27b
  MIC: 0.02 µg/mL (≈ 0.0386 µM)
MRSA, strain MRSA 28
  MIC: 0.03 µg/mL (≈ 0.0579 µM)
MRSA, strain MRSA 29
  MIC: 0.06 µg/mL (≈ 0.116 µM)
MRSA, strain MRSA 30
  MIC: 0.03 µg/mL (≈ 0.0579 µM)
MRSA, strain MRSA 31
  MIC: 16 µg/mL (≈ 30.9 µM)
MRSA, strain MRSA 32
  MIC: 0.06 µg/mL (≈ 0.116 µM)
MRSA, strain MRSA 33
  MIC: 0.06 µg/mL (≈ 0.116 µM)
MRSA, strain MRSA 34
  MIC: 0.06 µg/mL (≈ 0.116 µM)
MRSA, strain MRSA 35
  MIC: 0.03 µg/mL (≈ 0.0579 µM)
MRSA, strain MRSA 36
  MIC: 0.06 µg/mL (≈ 0.116 µM)
MRSA, strain MRSA 37
  MIC: 0.06 µg/mL (≈ 0.116 µM)
MRSA, strain MRSA 38
  MIC: 0.06 µg/mL (≈ 0.116 µM)
MRSA, strain MRSA 39
  MIC: 0.06 µg/mL (≈ 0.116 µM)
MRSA, strain MRSA 40
  MIC: 0.03 µg/mL (≈ 0.0579 µM)
MRSA, strain MRSA 41
  MIC: 0.02 µg/mL (≈ 0.0386 µM)
MRSA, strain MRSA 42
  MIC: 0.06 µg/mL (≈ 0.116 µM)
MRSA, strain MRSA 43
  MIC: 0.06 µg/mL (≈ 0.116 µM)
MRSA, strain MRSA 44
  MIC: 0.02 µg/mL (≈ 0.0386 µM)
MRSA, strain MRSA 45
  MIC: 0.02 µg/mL (≈ 0.0386 µM)
MRSA, strain MRSA 46
  MIC: 0.02 µg/mL (≈ 0.0386 µM)
MRSA, strain MRSA 47
  MIC: 0.02 µg/mL (≈ 0.0386 µM)
MRSA, strain MRSA 48
  MIC: 0.02 µg/mL (≈ 0.0386 µM)
MRSA, strain MRSA 49
  MIC: 0.02 µg/mL (≈ 0.0386 µM)
MRSA, strain MRSA 50
  MIC: 0.02 µg/mL (≈ 0.0386 µM)
MRSA, strain MRSA 51
  MIC: 0.03 µg/mL (≈ 0.0579 µM)
MRSA, strain MRSA 52
  MIC: 0.02 µg/mL (≈ 0.0386 µM)
MRSA, strain MRSA 53
  MIC: 0.03 µg/mL (≈ 0.0579 µM)
MRSA, strain MRSA 54
  MIC: 0.03 µg/mL (≈ 0.0579 µM)
MRSA, strain MRSA 55
  MIC: 0.02 µg/mL (≈ 0.0386 µM)
MRSA, strain MRSA 56
  MIC: < 0.01 µg/mL
MRSA, strain MRSA 57
  MIC: 0.02 µg/mL (≈ 0.0386 µM)
MRSA, strain MRSA 58
  MIC: 0.02 µg/mL (≈ 0.0386 µM)
MRSA, strain MRSA 59
  MIC: 0.02 µg/mL (≈ 0.0386 µM)
MRSA, strain MRSA 60
  MIC: 0.02 µg/mL (≈ 0.0386 µM)
MRSA, strain MRSA 61
  MIC: 0.02 µg/mL (≈ 0.0386 µM)
MRSA, strain MRSA 62
  MIC: 0.02 µg/mL (≈ 0.0386 µM)
MRSA, strain MRSA 63
  MIC: 0.02 µg/mL (≈ 0.0386 µM)
MRSA, strain MRSA 64
  MIC: 0.02 µg/mL (≈ 0.0386 µM)
MRSA, strain MRSA 65
  MIC: 0.02 µg/mL (≈ 0.0386 µM)
MRSA, strain MRSA 66
  MIC: 0.02 µg/mL (≈ 0.0386 µM)
MRSA, strain MRSA 67
  MIC: 0.02 µg/mL (≈ 0.0386 µM)
MRSA, strain MRSA 68
  MIC: 0.02 µg/mL (≈ 0.0386 µM)
MRSA, strain MRSA 69
  MIC: < 0.01 µg/mL
MRSA, strain MRSA 70
  MIC: 0.02 µg/mL (≈ 0.0386 µM)
MRSA, strain MRSA 71
  MIC: < 0.01 µg/mL
MRSA, strain MRSA 72
  MIC: 0.03 µg/mL (≈ 0.0579 µM)
MRSA, strain MRSA 73
  MIC: 0.03 µg/mL (≈ 0.0579 µM)
MRSA, strain MRSA 74
  MIC: 0.03 µg/mL (≈ 0.0579 µM)
MRSA, strain MRSA 75
  MIC: 0.03 µg/mL (≈ 0.0579 µM)
MRSA, strain MRSA 76
  MIC: 0.03 µg/mL (≈ 0.0579 µM)
MRSA, strain MRSA 77
  MIC: 0.03 µg/mL (≈ 0.0579 µM)
MRSA, strain MRSA 78
  MIC: 0.03 µg/mL (≈ 0.0579 µM)
MRSA, strain MRSA 79
  MIC: < 0.01 µg/mL
MRSA, strain MRSA 80
  MIC: 0.02 µg/mL (≈ 0.0386 µM)
MRSA, strain MRSA 81
  MIC: 0.03 µg/mL (≈ 0.0579 µM)
MRSA, strain MRSA 82
  MIC: 0.03 µg/mL (≈ 0.0579 µM)
MRSA, strain MRSA 83
  MIC: 0.03 µg/mL (≈ 0.0579 µM)
MRSA, strain MRSA 84
  MIC: 0.03 µg/mL (≈ 0.0579 µM)
MRSA, strain MRSA 85
  MIC: 0.03 µg/mL (≈ 0.0579 µM)
MRSA, strain MRSA 86
  MIC: 0.03 µg/mL (≈ 0.0579 µM)
MRSA, strain MRSA 87
  MIC: 0.02 µg/mL (≈ 0.0386 µM)
MRSA, strain MRSA 88
  MIC: 0.03 µg/mL (≈ 0.0579 µM)
MRSA, strain MRSA 89
  MIC: 0.02 µg/mL (≈ 0.0386 µM)
MRSA, strain MRSA 90
  MIC: 0.06 µg/mL (≈ 0.116 µM)
MRSA, strain MRSA 91
  MIC: 0.06 µg/mL (≈ 0.116 µM)
MRSA, strain MRSA 92
  MIC: 0.06 µg/mL (≈ 0.116 µM)
MRSA, strain MRSA 93
  MIC: 0.02 µg/mL (≈ 0.0386 µM)
MRSA, strain MRSA 94
  MIC: 0.03 µg/mL (≈ 0.0579 µM)
MRSA, strain MRSA 95
  MIC: 0.03 µg/mL (≈ 0.0579 µM)
MRSA, strain MRSA 96
  MIC: 0.03 µg/mL (≈ 0.0579 µM)
MRSA, strain MRSA 97
  MIC: 0.03 µg/mL (≈ 0.0579 µM)
MRSA, strain MRSA 98
  MIC: 0.03 µg/mL (≈ 0.0579 µM)
MRSA, strain MRSA 99
  MIC: 0.03 µg/mL (≈ 0.0579 µM)
MRSA, strain MRSA 100
  MIC: 1 µg/mL (≈ 1.93 µM)
MRSA, strain MRSA 101
  MIC: 0.03 µg/mL (≈ 0.0579 µM)
